Assay results reported in ChEMBL document CHEMBL1201862, “PubChem BioAssay data set” (2004).
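Results reflect a 48-hour exposure of cells in 96-well plates to compound at five concentrations. The concentration for 50% growth inhibition is given as GI50.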 Calls of active or inactive are those of the source. No stated cut-off is given here; in the data, active = GI50 up to about 1.1 µM and inactive = higher.

Assays:
Experiment in all cases: NCI anticancer screen, dose series, 48 h
786-0 = system: 786-0
A549 = system: A549
CAKI-1 = system: CAKI-1
CCRF-CEM = system: CCRF-CEM
COLO 205 = system: COLO 205
DU-145 = system: DU-145
IGROV-1 = system: IGROV-1
M14 = system: M14
MOLT-4 = system: MOLT-4
Malme-3M = system: Malme-3M
NCI-H23 = system: NCI-H23
NCI-H460 = system: NCI-H460
OVCAR-5 = system: OVCAR-5
PC-3 = system: PC-3
SK-MEL-28 = system: SK-MEL-28
SN12C = system: SN12C
SR = system: SR
SW-620 = system: SW-620
TK-10 = system: TK-10
RPMI-8226 = system: RPMI-8226

Measured: GI50

O=C(O)c1cc(-c2ccc3cc(O)c(O)cc3c2)ccc1O
inactive: 786-0 > 12.5 µM | A549 > 12.5 µM | CAKI-1 > 12.5 µM | CCRF-CEM > 12.5 µM | COLO 205 > 12.5 µM | DU-145 > 12.5 µM | IGROV-1 > 12.5 µM | M14 > 12.5 µM | MOLT-4 > 12.5 µM | Malme-3M > 12.5 µM | NCI-H23 > 12.5 µM | NCI-H460 > 12.5 µM | OVCAR-5 > 12.5 µM | PC-3 > 12.5 µM | SK-MEL-28 > 12.5 µM | SN12C > 12.5 µM | SR > 12.5 µM | SW-620 > 12.5 µM | TK-10 > 12.5 µM

O=C(CCc1ccc(O)cc1)NCCc1ccc(O)cc1
inactive: 786-0 > 100 µM | A549 > 100 µM | CAKI-1 > 100 µM | CCRF-CEM > 100 µM | COLO 205 > 100 µM | DU-145 > 100 µM | IGROV-1 > 100 µM | M14 > 100 µM | MOLT-4 > 100 µM | Malme-3M > 100 µM | NCI-H23 > 100 µM | NCI-H460 > 100 µM | OVCAR-5 > 100 µM | PC-3 > 100 µM | SK-MEL-28 > 100 µM | SN12C > 100 µM | SR > 100 µM | TK-10 > 100 µM

N/C(=N/c1ccc(O)cc1)S(=O)(=O)O
inactive: 786-0 > 100 µM | A549 > 100 µM | CAKI-1 > 100 µM | CCRF-CEM > 100 µM | COLO 205 > 100 µM | DU-145 > 100 µM | IGROV-1 > 100 µM | M14 > 100 µM | MOLT-4 > 100 µM | Malme-3M > 100 µM | NCI-H23 > 100 µM | NCI-H460 > 100 µM | OVCAR-5 > 100 µM | PC-3 > 100 µM | SN12C > 100 µM | SR > 100 µM | SW-620 > 100 µM | TK-10 > 100 µM

COc1ccc(/C=C2\CCC(C)c3c2nc(N)c(C#N)c3-c2ccc(OC)c(OC)c2)cc1OC (stereo not drawn)
inactive: 786-0 8.89 µM | CAKI-1 58.5 µM | CCRF-CEM 3.89 µM | COLO 205 6.56 µM | DU-145 20.7 µM | IGROV-1 15.1 µM | M14 32.3 µM | MOLT-4 3.1 µM | Malme-3M 16.5 µM | NCI-H23 5.6 µM | OVCAR-5 36.9 µM | PC-3 2.92 µM | RPMI-8226 3.65 µM | SK-MEL-28 45.8 µM | SN12C > 100 µM | SW-620 > 100 µM | TK-10 10.8 µM

OCC1OC(O)C(/N=C\c2ccc3c(c2)OCO3)C(O)C1O (stereo not drawn)
inactive: 786-0 > 100 µM | A549 > 100 µM | CAKI-1 > 100 µM | COLO 205 > 100 µM | DU-145 > 100 µM | IGROV-1 > 100 µM | M14 > 100 µM | MOLT-4 > 100 µM | Malme-3M > 100 µM | NCI-H23 > 100 µM | NCI-H460 > 100 µM | OVCAR-5 > 100 µM | PC-3 > 100 µM | RPMI-8226 > 100 µM | SK-MEL-28 > 100 µM | SR > 100 µM | SW-620 > 100 µM | TK-10 > 100 µM

O=C1CCCCC1=C(I)I
inactive: 786-0 16.5 µM | A549 37.8 µM | CCRF-CEM 19.1 µM | COLO 205 15.3 µM | DU-145 19.7 µM | IGROV-1 15.5 µM | M14 18 µM | MOLT-4 17.9 µM | Malme-3M 14.3 µM | NCI-H460 21.4 µM | OVCAR-5 17.5 µM | PC-3 16.5 µM | RPMI-8226 15.1 µM | SK-MEL-28 17 µM | SN12C 23.7 µM | SR 16.1 µM | SW-620 17.4 µM

Cc1nnc2sc(Cc3cnc(N)s3)nn12
inactive: 786-0 > 100 µM | A549 > 100 µM | CCRF-CEM > 100 µM | COLO 205 > 100 µM | DU-145 > 100 µM | IGROV-1 91.4 µM | M14 > 100 µM | MOLT-4 > 100 µM | Malme-3M > 100 µM | NCI-H23 > 100 µM | NCI-H460 > 100 µM | OVCAR-5 > 100 µM | PC-3 > 100 µM | RPMI-8226 > 100 µM | SK-MEL-28 > 100 µM | SN12C > 100 µM | SR > 100 µM | SW-620 > 100 µM | TK-10 > 100 µM

O=C(CC(=O)N1N=C(N2c3ccccc3Sc3ccccc32)CC1c1ccccc1)Nc1ccccc1Cl (stereo not drawn)
inactive: 786-0 > 100 µM | A549 > 100 µM | CAKI-1 > 100 µM | CCRF-CEM > 100 µM | COLO 205 > 100 µM | DU-145 > 100 µM | IGROV-1 > 100 µM | M14 > 100 µM | MOLT-4 > 100 µM | NCI-H23 > 100 µM | NCI-H460 > 100 µM | OVCAR-5 > 100 µM | PC-3 > 100 µM | RPMI-8226 > 100 µM | SK-MEL-28 > 100 µM | SN12C > 100 µM | SW-620 > 100 µM | TK-10 > 100 µM

CC(=O)OCC(OC(C)=O)C(OC(C)=O)C(OC(C)=O)C(C=NN(C(C)=O)S(=O)(=O)c1ccc(/C=C2\NC(=O)NC2=O)cc1)OC(C)=O (stereo not drawn)
inactive: 786-0 > 100 µM | A549 > 100 µM | CAKI-1 > 100 µM | CCRF-CEM 84.3 µM | COLO 205 > 100 µM | DU-145 > 100 µM | IGROV-1 > 100 µM | M14 > 100 µM | MOLT-4 > 100 µM | Malme-3M > 100 µM | NCI-H23 > 100 µM | NCI-H460 > 100 µM | OVCAR-5 > 100 µM | PC-3 > 100 µM | RPMI-8226 > 100 µM | SN12C > 100 µM | SW-620 > 100 µM | TK-10 > 100 µM

C/C(CC(O)(C(F)(F)F)C(F)(F)F)=N\N
inactive: 786-0 > 10 µM | A549 > 10 µM | CAKI-1 > 10 µM | CCRF-CEM > 10 µM | COLO 205 > 10 µM | DU-145 > 10 µM | IGROV-1 > 10 µM | M14 > 10 µM | MOLT-4 > 10 µM | Malme-3M > 10 µM | NCI-H23 > 10 µM | NCI-H460 > 10 µM | OVCAR-5 > 10 µM | PC-3 > 10 µM | RPMI-8226 > 10 µM | SK-MEL-28 > 10 µM | SN12C > 10 µM | SW-620 > 10 µM | TK-10 > 10 µM

CC12CCC(=O)N1c1cncnc1N2 (stereo not drawn)
inactive: 786-0 > 10 µM | A549 > 10 µM | CCRF-CEM > 10 µM | DU-145 > 10 µM | IGROV-1 > 10 µM | M14 > 10 µM | MOLT-4 > 10 µM | Malme-3M > 10 µM | NCI-H23 > 10 µM | NCI-H460 > 10 µM | OVCAR-5 > 10 µM | PC-3 > 10 µM | SN12C > 10 µM | SR > 10 µM | SW-620 > 10 µM | TK-10 > 10 µM

CN(CCSCCN(C)C(=O)OC(C)(C)C)C(=O)OC(C)(C)C
inactive: 786-0 > 100 µM | A549 > 100 µM | CAKI-1 > 100 µM | CCRF-CEM > 100 µM | COLO 205 > 100 µM | DU-145 > 100 µM | IGROV-1 > 100 µM | M14 > 100 µM | MOLT-4 > 100 µM | Malme-3M > 100 µM | NCI-H23 > 100 µM | NCI-H460 > 100 µM | OVCAR-5 > 100 µM | PC-3 > 100 µM | SK-MEL-28 > 100 µM | SN12C > 100 µM | SR > 100 µM | SW-620 > 100 µM | TK-10 > 100 µM

CC(C)(C)[Si](C)(C)OC1/C(=C/C#N)C(n2ccc(=O)[nH]c2=O)OC1CO (stereo not drawn)
inactive: 786-0 > 100 µM | A549 > 100 µM | CAKI-1 > 100 µM | COLO 205 > 100 µM | DU-145 > 100 µM | M14 > 100 µM | MOLT-4 > 100 µM | Malme-3M > 100 µM | NCI-H23 > 100 µM | NCI-H460 > 100 µM | OVCAR-5 > 100 µM | PC-3 > 100 µM | SK-MEL-28 > 100 µM | SR 42.1 µM | SW-620 > 100 µM | TK-10 > 100 µM

COC(=O)CC(c1ccccc1)C(C#N)(OP1(=O)OC(c2ccccc2)C(C)N1C)c1ccccc1 (stereo not drawn)
inactive: 786-0 83.4 µM | A549 35.2 µM | CAKI-1 72.1 µM | CCRF-CEM 37.8 µM | COLO 205 21.3 µM | DU-145 > 100 µM | IGROV-1 71.9 µM | M14 60 µM | MOLT-4 19.5 µM | Malme-3M 56.1 µM | NCI-H23 57.3 µM | NCI-H460 41.1 µM | OVCAR-5 > 100 µM | PC-3 35.8 µM | RPMI-8226 24.7 µM | SK-MEL-28 > 100 µM | SN12C 30.1 µM | SW-620 62.1 µM | TK-10 > 100 µM

CCOC(=O)CCCn1nnc(C(=O)OCC)c1C(=O)OCC
inactive: 786-0 > 100 µM | A549 > 100 µM | CAKI-1 > 100 µM | CCRF-CEM > 100 µM | COLO 205 > 100 µM | DU-145 > 100 µM | IGROV-1 > 100 µM | MOLT-4 > 100 µM | Malme-3M > 100 µM | NCI-H23 > 100 µM | NCI-H460 > 100 µM | PC-3 > 100 µM | SK-MEL-28 > 100 µM | SN12C > 100 µM | SR > 100 µM | SW-620 > 100 µM | TK-10 > 100 µM
